Reference: ChEMBL document CHEMBL3046784, “Exploring QSAR of antiamoebic agents of isolated natural products by MLR, ANN, and RTO” (Med Chem Res, 2012)
In brackets after ≈: the same amount, converted by molar mass.

test system: Entamoeba histolytica; assay: Antiamoebic activity against Entamoeba histolytica; format: functional, organism-based; settings: not given

SMILES	IC50 [µg/mL]
COc1cc2c3cc1Oc1c(OC)c(OC)cc4c1[C@H](Cc1ccc(cc1)Oc1cc(ccc1O)C[C@H]3N(C)CC2)N(C)CC4 (stereo in doubt; 13) [AROMOLINE]	2.99 (≈ 4.91 µM)
COc1cc2c3cc1Oc1c(OC)c(OC)cc4c1[C@H](Cc1ccc(cc1)Oc1cc(ccc1O)C[C@H]3N(C)CC2)N(C)CC4 (stereo in doubt; 117) [AROMOLINE]	19.64 (≈ 32.3 µM)
COc1ccc2cc1Oc1ccc(cc1)C[C@H]1c3cc(c(OC)cc3CCN1C)Oc1c(OC)c(OC)cc3c1[C@H](C2)N(C)CC3 (stereo in doubt; 145) [FANCHININ]	25.16 (≈ 40.4 µM)
COc1ccc2cc1Oc1ccc(cc1)C[C@H]1c3cc(c(OC)cc3CCN1C)Oc1c(OC)c(OC)cc3c1[C@H](C2)N(C)CC3 (stereo in doubt; 146) [FANCHININ]	10.51 (≈ 16.9 µM)

same assay, conditions: Entamoeba histolytica; read-out: IC50

SMILES	IC50 [µg/mL]
CC[C@H]1CN2CCc3c([nH]c4ccccc34)[C@@H]2C[C@H]1C[C@H]1c2[nH]c3ccccc3c2CCN1C.O=C(O)C(=O)O	0.65
CC(C)=CCC/C(C)=C/CC/C(C)=C/CC/C=C(\C)CC/C=C(\C)CCC=C(C)C	270 (≈ 658 µM)
COC1=C[C@]23CCN(C)[C@H](Cc4cc(OC)c(OC)cc42)C3=CC1=O	50.1 (≈ 147 µM)
CC[C@](C)(OC(C)=O)C(=O)O[C@H]1C(=O)O[C@@H]2C[C@H]3C(C)=CC(=O)[C@@H](O)[C@]3(C)[C@H]3[C@@]4(O)OC[C@]32[C@@H]1[C@@H](C)[C@H]4O [2'-ACETOXY-GLAUCARUBINONE]	0.155 (≈ 0.289 µM)
COc1c(O)cc2oc(-c3ccc(O)cc3)c(OC)c(=O)c2c1O [3,6-DIMETHOXY KAEMPFEROL]	105 (≈ 319 µM)
C=C[C@H]1CN2CC[C@H]1C[C@@H]2[C@@]12Nc3ccccc3[C@]1(O)CCO2 [3-EPIQUINAMINE]	12.9 (≈ 41.3 µM)
CC[C@@H]1CN2CCc3c([nH]c4ccccc34)[C@H]2C[C@@H]1CCO [3-ISOCORYNANTHEOL]	4.1 (≈ 13.7 µM)
C=C[C@H]1CN2CCc3c([nH]c4ccccc34)[C@@H]2C[C@@H]1C[C@H]1NCCc2c1[nH]c1cccc(OC)c21 [3ALPHA-17ALPHA-CINCHOPHYLLINE]	2.2 (≈ 4.71 µM)
C=C[C@H]1CN2CCc3c([nH]c4ccccc34)[C@@H]2C[C@@H]1C[C@@H]1NCCc2c1[nH]c1cccc(OC)c21 [3ALPHA-17BETA-CINCHOPHYLLINE]	0.96 (≈ 2.06 µM)
CCc1ccc2[n+](c1)CCc1c-2[nH]c2ccccc12 [5,6-DIHYDROFLAVOPEREIRINE]	6.02
C=C[C@H]1CN2CC[C@H]1C[C@H]2c1[nH]c2ccccc2c1CCOC [10-METHOXY CINCHONAMINE]	4.5 (≈ 14.5 µM)
CC[C@@H]1CN2CC[C@@]34c5ccccc5N5[C@@H]([C@@H]6[C@H]7C[C@@H]8N(CC[C@@]89c8cccc(O)c8N(C(C)=O)[C@@H]69)C[C@H]7CC)OC[C@H]([C@H]1C[C@H]23)[C@H]54 [12'-HYDROXYISOSTRYCHNOBILINE]	21.4 (≈ 33.7 µM)
Oc1cc(O)c2c(c1)O[C@H](c1ccc(O)c(O)c1)[C@H](O)C2 [(-)-EPICATECHIN]	1.92 (≈ 6.61 µM)
COC(=O)C1=CO[C@H](O[C@@H]2O[C@H](COC(C)=O)[C@@H](O)[C@H](O)[C@H]2O)[C@H]2[C@@H]1C=C[C@@]21C=C(C(O)c2ccc(O)cc2)C(=O)O1 (stereo partly specified) [ACETYLGAERTNEROSIDE]	5.4 (≈ 9.14 µM)
CCC(C)C(=O)O[C@H]1C(=O)O[C@@H]2C[C@H]3C(C)=CC(=O)[C@@H](O)[C@]3(C)[C@H]3[C@]4(O)OC[C@]32[C@@H]1[C@@H](C)[C@H]4O (stereo partly specified) [AILANTHINONE]	0.063 (≈ 0.132 µM)
CC[C@H]1[C@@H]2C[C@H]3[C@@H]4N(C)c5ccccc5[C@]45C[C@@H]([C@@H]2[C@H]5O)N3[C@@H]1O [AJMALINE]	> 100
C/C=C(/C=O)[C@@H]1C[C@H]2c3c(c4ccccc4n3[C@@H](O)C1)CCN2C [AKAGERINE]	17.1 (≈ 52.7 µM)
O=c1cc(-c2ccc(O)cc2)oc2cc(OC3O[C@H](CO)[C@@H](O)[C@H](O)[C@H]3O)cc(O)c12 (stereo partly specified) [APIGENIN-7-O-GLUCOSIDE]	59.8 (≈ 138 µM)
O=c1cc(-c2ccc(O)cc2)oc2cc(O)cc(O)c12 [APIGENIN]	12.7 (≈ 47 µM)
COC(=O)C1=CO[C@@H](C)[C@@H]2CN3CCc4c([nH]c5ccc(OC)cc45)[C@@H]3C[C@H]12 [ARICINE]	3.6 (≈ 9.41 µM)
CN1[C@@H]2CC[C@H]1C[C@@H](OC(=O)C(CO)c1ccccc1)C2 (stereo partly specified) [ATROPINE]	> 100
COc1cc2c3cc1Oc1c(OC)c(OC)cc4c1[C@@H](Cc1ccc(O)c(c1)Oc1ccc(cc1)C[C@@H]3N(C)CC2)N(C)CC4 [BERBAMINE]	22.4 (≈ 36.7 µM)
COc1ccc2cc3[n+](cc2c1OC)CCc1cc2c(cc1-3)OCO2 [BERBERINE]	1
CC[C@H](CC[C@@H](C)[C@H]1CC[C@H]2[C@@H]3CC=C4C[C@@H](O)CC[C@]4(C)[C@H]3CC[C@]12C)C(C)C [BETA-SITOSTEROL]	52.3 (≈ 126 µM)
C/C=C(/C)C(=O)O[C@H]1[C@@H]2[C@H](C)C(=O)O[C@@H]2C[C@@H](C)[C@@H]2C=CC(=O)[C@]21C [BREVILIN A]	3.11 (≈ 8.98 µM)
COC(=O)[C@@]12OC[C@]34[C@H]([C@@H](O)[C@@H]1O)[C@@]1(C)CC(=O)C(O)=C(C)[C@@H]1C[C@H]3OC(=O)[C@H](OC(=O)/C=C(\C)C(C)C)[C@@H]24 [BRUCEANTIN]	0.019 (≈ 0.0346 µM)

SMILES	IC50 [µg/mL]
COC(=O)[C@@]12OC[C@]34[C@H]([C@@H](O)[C@@H]1O)[C@@]1(C)CC(=O)C(O)=C(C)[C@@H]1C[C@H]3OC(=O)[C@H](OC(=O)CC(C)C)[C@@H]24 [BRUCEINE A]	0.097 (≈ 0.186 µM)
COC(=O)[C@@]12OC[C@]34[C@H]([C@@H](O)[C@@H]1O)[C@@]1(C)CC(=O)C(O)=C(C)[C@@H]1C[C@H]3OC(=O)[C@H](OC(C)=O)[C@@H]24 [BRUCEINE B]	0.306 (≈ 0.637 µM)
COC(=O)[C@]12OC[C@]34[C@H]([C@@H](O)[C@@H]1O)[C@@]1(C)CC(=O)C(O)=C(C)[C@@H]1C[C@H]3OC(=O)[C@H](OC(=O)/C=C(\C)C(C)(C)O)[C@@H]24 [BRUCEINE C]	0.279 (≈ 0.494 µM)
CC1=CC(=O)[C@@H](O)[C@]2(C)[C@H]3[C@@H](O)[C@H](O)[C@]4(C)OC[C@@]35[C@@H](C[C@@H]12)OC(=O)[C@H](O)[C@]54O [BRUCEINE D]	0.386 (≈ 0.941 µM)
COC(=O)[C@]12OC[C@]34[C@H]([C@@H](O)[C@@H]1O)[C@@]1(C)CC(=O)C(O)=C(C)[C@@H]1C[C@H]3OC(=O)[C@H](OC(=O)C=C(C)C)[C@@H]24 [BRUSATOL]	0.062 (≈ 0.119 µM)
O=c1ccc2nccc3c4ccccc4n1c23 [CANTHIN-6-ONE]	23 (≈ 104 µM)
CC(=O)CCCCCCCCCC[C@H]1CC[C@@H](O)[C@@H](C)N1 [CASSINE]	12 (≈ 40.2 µM)
CC[C@H]1CN2CCc3cc(OC)c(OC)cc3[C@@H]2C[C@@H]1C[C@H]1NCCc2cc(O)c(OC)cc21 [CEPHAELINE]	3.26 (≈ 6.99 µM)
O=c1cc(-c2ccccc2)oc2cc(O)cc(O)c12 [CHRYSIN]	81 (≈ 319 µM)
COc1cc(-c2cc(=O)c3c(O)cc(O[C@@H]4O[C@H](CO)[C@@H](O)[C@H](O)[C@H]4O[C@@H]4O[C@@H](C)[C@H](O)[C@@H](O)[C@H]4O)cc3o2)ccc1O [CHRYSOERIOL-7-O-NEOHESPERIDOSIDE]	> 125
Cc1cc(O)c2c(c1)C(=O)c1cccc(O)c1C2=O [CHRYSOPHANOL]	6.21 (≈ 24.4 µM)
Oc1cc(O)c2c(c1)O[C@H](c1ccc(O)c(O)c1)[C@@H](O)C2 [CIANIDANOL]	65.5 (≈ 226 µM)
C=C[C@H]1CN2CC[C@H]1C[C@H]2c1[nH]c2ccccc2c1CCO [CINCHONAMINE]	14.8 (≈ 49.9 µM)
COc1cc2c3c4c1Oc1cc5c(cc1O4)[C@H](Cc1ccc(O)c(c1)Oc1ccc(cc1)C[C@@H]3N(C)CC2)NCC5 [COCSOLINE]	9.86 (≈ 18 µM)
CI.COc1cc2c3c4c1Oc1cc5c(cc1O4)[C@H](Cc1ccc(O)c(c1)Oc1ccc(cc1)C[C@@H]3N(C)CC2)N(C)CC5 [COCSULINE METHIODIDE]	28.9
COc1cc2c3c4c1Oc1cc5c(cc1O4)[C@H](Cc1ccc(O)c(c1)Oc1ccc(cc1)C[C@@H]3N(C)CC2)N(C)CC5 [COCSULINE]	13.2 (≈ 23.5 µM)
C[C@@H]1N=C[C@]23CC[C@H]4[C@@H](CC=C5C[C@@H](N)CC[C@@]54C)[C@@H]2CC[C@H]13 [CONCKURCHINE]	12 (≈ 38.4 µM)
CN[C@H]1CC[C@@]2(C)C(=CC[C@H]3[C@@H]4CC[C@@H]5[C@H](C)N=C[C@@]54CC[C@@H]32)C1 [CONESSIDINE]	2.29 (≈ 7.01 µM)
C[C@@H]1NC[C@]23CC[C@H]4[C@@H](CC=C5C[C@@H](N(C)C)CC[C@@]54C)[C@@H]2CC[C@H]13 [CONESSIMINE]	1.87 (≈ 5.46 µM)
C[C@H]1[C@H]2CC[C@H]3[C@@H]4CC=C5C[C@@H](N(C)C)CC[C@]5(C)[C@H]4CC[C@]23CN1C [CONESSINE]	8.97 (≈ 25.2 µM)
COc1ccc2c3c(c4cc(OC)c(OC)cc4c2c1)C[C@H]1CCCCN1C3 [CRYPTOPLEURINE]	0.031 (≈ 0.0821 µM)
COc1cc2c3cc1Oc1c(O)c(OC)cc4c1[C@H](Cc1ccc(cc1)Oc1cc(ccc1O)C[C@H]3NCC2)N(C)CC4 [DAPHNOLINE]	> 50
CC[C@@H]1CN2CC[C@@]34c5ccccc5N5[C@@H]([C@@H]6[C@H]7C[C@@H]8N(CC[C@@]89c8ccccc8N(C(C)=O)[C@@H]69)C[C@H]7CC)OC[C@H]([C@H]1C[C@H]23)[C@H]54 [DIDEHYDRO ISOSTRYCHNOBILINE]	21.4 (≈ 34.6 µM)
COc1ccc2cc1-c1cc(ccc1O)C[C@@H]1c3c(cc(OC)c4c3Oc3cc5c(cc3O4)CCN(C)[C@H]5C2)CCN1C [DINKLACORINE]	19.8 (≈ 34.4 µM)
C/C=C1/C[N+]2(C)CCc3c([nH]c4ccccc34)C2CC1C(CO)C(=O)OC (stereo unspecified) [DIPLOCELINE]	50
Oc1cc(O)c2c(c1)O[C@H](c1cc(O)c(O)c(O)c1)[C@H](O)C2 [EPIGALLOCATECHIN]	6.89 (≈ 22.5 µM)
